We go through 29 compounds from the ASAP Discovery antiviral challenge data (2025).

The conditions of data set [1]: mdck_mdr1.
For data set [2] the following is noted: human; liver_microsomes.
For data set [3] the following is noted: mouse; liver_microsomes.
Test in data set [4]: not given
This is another data set of the same source.

The structures appear in SMILES notation. Converted amounts (≈) assume the structure as drawn. “And” between values parts separate entries of the source, which are not always exact repeats. Equal entries are not always repeated.

As a reminder, the logD is the decadic logarithm of the distribution of all forms, ionised or not, between an organic phase and buffer at a given pH. In general, Papp refers to a coefficient for how fast a substance crosses the barrier. Low readings indicate poor permeation, high ones ready permeation. Usually microsomal CLint stands for a measure of how fast metabolising enzymes remove a compound, apart from limits set by blood flow. A low value points to slow turnover. As for `CC(C)[C@H](CO)Nc1ncnc2[nH]ccc12`, the logD is 1.69. Besides, in data set [1], the Papp is 13.1 ×10⁻⁶ cm/s. For the same compound, the microsomal CLint in data set [2] is 6 µL/min/mg. In data set [3], this compound gave a microsomal CLint of 10 µL/min/mg.

The term kinetic solubility denotes the concentration staying in solution when a stock, usually in DMSO, is diluted into the medium. In data set [1], `CNC(=O)c1cc(Cl)c(F)cc1NS(=O)(=O)c1ccc(Oc2ccccc2Cl)cc1` registered a Papp of 6.11 ×10⁻⁶ cm/s. This compound came in with a kinetic solubility in data set [4] of 49 µM (≈ 23 µg/mL). Moreover, the results for the microsomal CLint in data set [2] and in data set [3] were 71.3 µL/min/mg and 45.6 µL/min/mg, respectively.

In turn, `COc1cc(-c2cc(NC(=O)c3cc(F)cc4[nH]ncc34)cc3c2CNC3)ccn1` yielded a logD of 2. The same compound came in with a Papp in data set [1] of 0.788 ×10⁻⁶ cm/s. In data set [4], this compound displayed a kinetic solubility of 180 µM (≈ 72.6 µg/mL). In addition, the microsomal CLint in data set [3] turned out to be 260 µL/min/mg.

As to `Cc1cc(-c2noc(C(F)(F)F)n2)ccc1OCCCc1cc(C(=O)N(C)C)no1`, the Papp in data set [1] stood at 2.26 ×10⁻⁶ cm/s. The compound also returned a solubility (kinetic) in data set [4] of 9 µM (≈ 3.82 µg/mL). The microsomal CLint was determined as 11 µL/min/mg in data set [2] and 24.4 µL/min/mg in data set [3].

In the case of `Cn1c(=O)[nH]c2c(C(=O)Nc3ccc4c(c3)CNC4)cc(Br)cc21`, the logD was found to be 0.5. This compound also registered a Papp in data set [1] of 0.805 ×10⁻⁶ cm/s. The solubility (kinetic) in data set [4] was 161 µM (≈ 62.3 µg/mL). In addition, the microsomal CLint in data set [3] came to 12.5 µL/min/mg.

Take `Cn1cc2c(C(=O)Nc3ccc4c(c3)CNC4)cc(F)cc2n1`: the logD was 0.2. In data set [1], this compound yielded a Papp of 3.4 ×10⁻⁶ cm/s. This compound also gave a kinetic solubility in data set [4] of 309 µM (≈ 95.9 µg/mL). The microsomal CLint in data set [3] was 18.2 µL/min/mg.

For `N#Cc1cccc(-c2nc3c(C(=O)Nc4ccc5c(c4)CNC5)cc(F)cc3[nH]2)c1`, the logD worked out at 2. Further, the kinetic solubility in data set [4] worked out at 3 µM (≈ 1.19 µg/mL). The same compound had a microsomal CLint in data set [3] of 22 µL/min/mg.

`O=C(Nc1cc2c(c(-c3c[nH]c(=O)c(F)c3)c1)CNC2)c1cc(F)cc2[nH]ncc12` yielded a logD of 0.4. For the same compound, the Papp in data set [1] worked out at 0.651 ×10⁻⁶ cm/s. The compound also returned a kinetic solubility in data set [4] of 66 µM (≈ 26.9 µg/mL). Moreover, the microsomal CLint in data set [3] was 243 µL/min/mg.

In turn, `O=C(Nc1cc2c(c(C3=CCOCC3)c1)CNC2)c1cc(F)cc2[nH]ncc12` returned a logD of 0.9. Also, the apparent permeability coefficient (Papp) in data set [1] came to 1.1 ×10⁻⁶ cm/s. This compound came in with a kinetic solubility in data set [4] of 157 µM (≈ 59.4 µg/mL). Moreover, the intrinsic metabolic clearance (microsomal CLint) in data set [3] was 152 µL/min/mg.

For the compound `O=C(Nc1cc2c(c(C3=CCS(=O)(=O)CC3)c1)CNC2)c1cc(F)cc2[nH]ncc12`, the logD was -0.1. This compound also gave a Papp in data set [1] of 1.3 ×10⁻⁶ cm/s. The compound further displayed a kinetic solubility in data set [4] of 141 µM (≈ 60.1 µg/mL). The compound also displayed a microsomal CLint in data set [3] of 96.9 µL/min/mg.

`O=C(Nc1cc2c(cc1C1CC1)CNC2)c1cc(F)cc2[nH]ncc12` displayed a pH-dependent lipophilicity (logD) of 0.7. The compound further had a Papp in data set [1] of 3.41 ×10⁻⁶ cm/s. Also, the kinetic solubility in data set [4] was found to be 189 µM (≈ 63.6 µg/mL). The same compound registered a microsomal CLint in data set [3] of 86.8 µL/min/mg.

`O=C(Nc1ccc2c(c1)CNC2)c1cc(Br)cc2[nH]c(-c3ccccc3)nc12` had a logD of 3.6. Besides, the Papp in data set [1] is 0.0942 ×10⁻⁶ cm/s. Moreover, the microsomal CLint in data set [2] is 12.8 µL/min/mg. The compound further displayed a microsomal CLint in data set [3] of 43.8 µL/min/mg.

In turn, `O=C(Nc1ccc2c(c1)CNC2)c1cc(Cl)cc2[nH]ncc12` showed a logD of 0.9. Further, the Papp in data set [1] was determined as 1.8 ×10⁻⁶ cm/s. In addition, the kinetic solubility in data set [4] was 279 µM (≈ 87.3 µg/mL). The same compound showed a microsomal CLint in data set [3] of 243 µL/min/mg.

`O=C(Nc1ccc2c(c1)CNC2)c1cc(Cl)cc2c1cnn2C1CCC1` had a logD of 2. In data set [1], this compound had a Papp of 1 ×10⁻⁶ cm/s. This compound registered a solubility (kinetic) in data set [4] of 172 µM (≈ 63.1 µg/mL). In data set [3], this compound displayed a microsomal CLint of 13.4 µL/min/mg.

Compound `O=C(Nc1ccc2c(c1)CNC2)c1cc(Cl)cc2ccncc12` showed a logD of 0.6. The same compound came in with a Papp in data set [1] of 3.42 ×10⁻⁶ cm/s. This compound had a kinetic solubility in data set [4] of 181 µM (≈ 58.6 µg/mL). The compound further yielded a microsomal CLint in data set [3] of 24.5 µL/min/mg.

With `O=C(Nc1ccc2c(c1)CNC2)c1cc(Cl)cc2cn[nH]c12`, the logD is 1.2. In data set [1], the Papp is 4.63 ×10⁻⁶ cm/s. This compound gave a kinetic solubility in data set [4] of 184 µM (≈ 57.5 µg/mL). Further, in data set [3], the microsomal CLint worked out at 54 µL/min/mg.

With `O=C(Nc1ccc2c(c1)CNC2)c1cc(F)cc2[nH]c(-c3ccc(F)cc3)nc12`, the pH-dependent lipophilicity (logD) is 2.9. The Papp in data set [1] was found to be 0.1 ×10⁻⁶ cm/s. Besides, the solubility (kinetic) in data set [4] is 6 µM (≈ 2.34 µg/mL). In data set [3], this compound came in with a microsomal CLint of 36.8 µL/min/mg.

`O=C(Nc1ccc2c(c1)CNC2)c1cc(F)cc2c1CCC2` gave a logD of 1.2. In data set [1], this compound yielded a Papp of 10.7 ×10⁻⁶ cm/s. In data set [4], this compound showed a solubility (kinetic) of 187 µM (≈ 55.4 µg/mL). In data set [3], this compound had a microsomal CLint of 37.4 µL/min/mg.

In data set [1], `CCCC[C@H](NC(=O)OC(C)(C)C)C(=O)N[C@H](C(=O)NCc1ccc(CN)cc1)c1ccc(OCc2ccccc2)cc1` (mixture of isomers) displayed a Papp of 0.833 ×10⁻⁶ cm/s. Besides, the kinetic solubility in data set [4] worked out at 143 µM. Besides, the microsomal CLint was 56 µL/min/mg in data set [2] and 7.44 µL/min/mg in data set [3].

The compound `CC(C)[C@H](Nc1ncnc(N)c1Cl)c1ccc2c(c1)S(=O)(=O)CCC2` (racemic) returned a logD of 2.4. The compound further gave a Papp in data set [1] of 10.1 ×10⁻⁶ cm/s. For the same compound, in data set [2], the microsomal CLint was 79 µL/min/mg. In data set [3], this compound registered a microsomal CLint of 204 µL/min/mg.

With `COc1ccc([C@H](CC(=O)O)NC(=O)c2ncnc3[nH]ccc23)cc1` (racemic), the logD is -0.38. In data set [1], this compound showed a Papp of 1.7 ×10⁻⁶ cm/s. Further, the microsomal CLint in data set [2] was determined as 7 µL/min/mg. In data set [3], the microsomal CLint was 2 µL/min/mg.

Consider `COc1ccc([C@H](NC(=O)c2ncnc3[nH]ccc23)C(C)c2nnn[nH]2)cc1` (mixture of isomers), for which the logD is 0. The compound also gave an apparent permeability coefficient (Papp) in data set [1] of 1.13 ×10⁻⁶ cm/s. Besides, in data set [2], the microsomal CLint is 2 µL/min/mg. For the same compound, in data set [3], the microsomal CLint was found to be 1 µL/min/mg.

In turn, `O=C(Nc1cccc2c(C(=O)N[C@H]3c4ccccc4C[C@H]3C(=O)O)c[nH]c12)NC1CC1` (racemic) returned a logD of -0.05. The compound further showed a Papp in data set [1] of 1.8 ×10⁻⁶ cm/s. The intrinsic metabolic clearance (microsomal CLint) in data set [2] came to 6 µL/min/mg. This compound also had a microsomal CLint in data set [3] of 4 µL/min/mg.

Take `CC(C)NC(=O)[C@H](Nc1ccc2c(c1)CNC2)c1cc(Cl)cc2[nH]c(-c3ccccc3)nc12` (single isomer, unassigned): the logD worked out at 2.8. Moreover, in data set [1], the Papp stood at 0.2 ×10⁻⁶ cm/s. The solubility (kinetic) in data set [4] came out at 134 µM (≈ 61.6 µg/mL). The compound also returned a microsomal CLint in data set [3] of 11 µL/min/mg.

On to `CC(C)[C@H](Nc1ncnc2[nH]c(-c3cnn(C)c3C#N)cc12)c1ccc2c(c1)NC(=O)CO2` (single isomer, unassigned), for which the Papp in data set [1] was 1.22 ×10⁻⁶ cm/s and 2.35 ×10⁻⁶ cm/s. The solubility (kinetic) in data set [4] was 26 µM and 19 µM. Further, the microsomal CLint in data set [2] is 115 µL/min/mg and 52 µL/min/mg; in data set [3], 81 µL/min/mg and 147 µL/min/mg.

For `CC(C)[C@H](Nc1ncnc2[nH]c(-c3cnn(CC(N)=O)c3)cc12)c1ccc2c(c1)OCCO2` (single isomer, unassigned), the logD was found to be 2.9. Moreover, the apparent permeability coefficient (Papp) in data set [1] was 1.09 ×10⁻⁶ cm/s and 1.87 ×10⁻⁶ cm/s. Besides, the solubility (kinetic) in data set [4] is 280 µM and 332 µM. In addition, the microsomal CLint in data set [3] is 16 µL/min/mg and 42 µL/min/mg.

Regarding `CC(C)[C@H](Nc1ncnc2[nH]ccc12)c1ccc2c(c1)NC(=O)CO2` (single isomer, unassigned), the logD was 1.8 and 2.2. The Papp in data set [1] is 3.4 ×10⁻⁶ cm/s and 8.7 ×10⁻⁶ cm/s. Also, the solubility (kinetic) in data set [4] is 371 µM and 374 µM. Also, in data set [3], the microsomal CLint is 37 µL/min/mg and 80 µL/min/mg.

With `CCNC(=O)c1cc2c(N[C@H](c3ccc4c(c3)S(=O)(=O)CCC4)C(C)C)ncnc2[nH]1` (single isomer, unassigned), the logD is 2.7 and 2.8. Besides, the Papp in data set [1] is 0.717 ×10⁻⁶ cm/s and 0.532 ×10⁻⁶ cm/s. For the same compound, in data set [4], the solubility (kinetic) is 337 µM and 316 µM. For the same compound, in data set [3], the microsomal CLint is 64 µL/min/mg and 54 µL/min/mg.

With `CNC(=O)c1cc2c(N[C@H](c3ccc4c(c3)S(=O)(=O)CCC4)C(C)C)ncnc2[nH]1` (single isomer, unassigned), the logD was 2.3 and 2.4. For the same compound, in data set [1], the Papp was 0.891 ×10⁻⁶ cm/s and 0.377 ×10⁻⁶ cm/s. Besides, the solubility (kinetic) in data set [4] is 374 µM and 397 µM. Besides, the microsomal CLint in data set [3] is 47 µL/min/mg and 23 µL/min/mg.
